Assay results as given in PMC2746281 (PLoS ONE, 2009).

Assays:
Lyn B = target: T1, Lyn B (Homo sapiens, UniProt P07948); experiment: Recombinant kinase ELISA assay, Lyn B; assay type: biochemical; conditions: recombinant human enzyme; ELISA-based assay, poly(Glu,Tyr 4:1) substrate
T1 construct: Lyn B (2–583; BC059394); 6xHN (N); made in house; host or cells: baculovirus, Sf9 insect cells
Protocol: (§1) Full details for the generation of recombinant human KIT intracellular domain and other protein kinases (including Lyn, platelet derived growth factor receptor β, epidermal growth factor receptor, fibroblast growth factor receptor 1, Src, HCK, PYK, FES, Btk, Bmx, c-Ret, c-Fms, Syk, and c-Met) are provided in the Supplemental Methods (see Supporting Information; Methods S1). Experiments on ABL1, Akt1, protein kinase C-α, insulin-like growth factor receptor 1, and Pim1 were carried out by Proqinase (Germany). All other recombinant protein kinases were performed in-house using an enzyme-linked immunoassay; experimental details are provided in the Supplemental Methods (see Supporting Information; Methods S1).

[1] = tested on: cultured human lymphocytes; experiment: Chromosome aberration test in cultured human lymphocytes; assay type: cell-based; conditions: our unpublished results
c-Ret = target: T2, c-Ret (Homo sapiens, UniProt P07949); experiment: Recombinant kinase ELISA assay, c-Ret; assay type: biochemical; conditions: recombinant human enzyme; ELISA-based assay, poly(Glu,Tyr 4:1) substrate
T2 construct: c-Ret (713–1114; BC004257); 6xHN (N); made in house; host or cells: baculovirus, Sf9 insect cells
Protocol: as §1
(§2) The sequences encoding PDGF receptor β (residues 554–1106; GenBank accession no. BC032224), Lyn B (2–583; accession no. BC059394), fibroblast growth factor receptor 1 (572–959; accession no. BC018128), Src (2–536; accession no. BC011566), Btk (2–659; accession no. BC109079), Bmx (2–675; accession no. BC016652), c-Ret (713–1114; accession no. BC004257), c-Fms (538–972; BC047531), Syk (2–612; BC011399), Hck (2-526; accession no. BC014435), Fes (2-822; accession no. BC035357), PYK2 (2-1006; accession no. BC042599) and c-Met (949–1398; accession no. lifeseq3489592) were amplified by PCR from IMAGE cDNA clones purchased from Openbiosystems. […]

Jak2 = Jak2 (Homo sapiens, UniProt O60674); experiment: Recombinant kinase screen (Proqinase), Jak2; assay type: biochemical; conditions: recombinant human enzyme; single experiment, kinase screen by Proqinase
PDGFRβ = PDGFRβ (Homo sapiens, UniProt P09619); experiment: Recombinant kinase ELISA assay, PDGFRβ; assay type: biochemical; set-up: PDGF receptor β (residues 554–1106; BC032224); 6xHN (N); made in house; host or cells: baculovirus, Sf9 insect cells; conditions: recombinant human enzyme; ELISA-based assay, poly(Glu,Tyr 4:1) substrate
Protocol: as §1

primary BMMCs = experiment: IL-3-stimulated proliferation of primary BMMCs; assay type: cell-based, mice; conditions: Mus musculus, BMMC, primary murine BMMCs
Protocol: (B) western blotting analysis of HMC-1α155 tyrosine phosphorylation. […] (D) Western blotting analysis of BMMC tyrosine phosphorylation. Cell proliferation was assessed by WST-1 colorimetric assay. […] MW = molecular weight.

Syk = target: T3, Syk (Homo sapiens, UniProt P43405); experiment: Recombinant kinase ELISA assay, Syk; assay type: biochemical; conditions: recombinant human enzyme; ELISA-based assay, poly(Glu,Tyr 4:1) substrate
T3 construct: Syk (2–612; BC011399); 6xHN (N); made in house; host or cells: baculovirus, Sf9 insect cells
Protocol: as §1, §2

Jak1 = target: T4, Jak1 (Homo sapiens, UniProt P23458); experiment: Ba/F3 cell proliferation (WST-1), Jak1; conditions: Ba/F3 cells expressing the enzyme, read-out: Cell-based assay IC50, Jak1
T4 construct: expressed in transfected cells; host or cells: Ba/F3

[2] = tested on: human cord-blood-derived mast cells (CBMC); experiment: FcεRI-mediated degranulation (β-hexosaminidase release) of IgE-anti IgE activated CBMC; assay type: cell-based; conditions: Mast cell, 0.5 h, 30 minutes of stimulation
Protocol: (see Supporting Information; Methods S1). […] Assays of β-hexosaminidase release and TNF-α release were made by stimulating the CBMC with 1 µg/ml of goat anti-human IgE (Vector Laboratories) for 30 minutes or 4 hours, respectively. β-hexosaminidase was measured in the supernatant and in the sonicated cell pellets and its net release calculated. For TNF-α determination, the cell-free supernatants were collected by centrifugation and frozen at −80°C until determination of mediator content by the use of a specific ELISA kit according to manufacturer's instructions (Coulter, France). All assays were performed in duplicate and counts were repeated twice for each well.
Human CBMC were produced by long-term culture of CD34+ progenitors purified from normal cord-blood. […] At the beginning of the culture, rhIL-3 (1 ng/ml) (R&D Systems Europe, France) was also added to induce maximal expansion of haematopoietic progenitors. After 3 days the IL-3 was removed and 4 days later cells were transferred to a complete serum-free medium containing rmSCF at 100 ng/ml, which was renewed every 7 days thereafter. After 8 weeks in culture ≥99% of the cells were identified as being mast cells by May-Grünwald-Giemsa staining of cytocentrifuged samples.

Jak3 = target: T5, Jak3 (Homo sapiens, UniProt P52333); experiment: Ba/F3 cell proliferation (WST-1), Jak3; conditions: Ba/F3 cells expressing the enzyme, read-out: Cell-based assay IC50, Jak3
T5 construct: expressed in transfected cells; host or cells: Ba/F3

[3] = target: Fibroblast growth factor receptor 3 (Homo sapiens, UniProt P22607); experiment: Recombinant kinase ELISA assay, FGFR3; assay type: biochemical; conditions: recombinant human enzyme; ELISA-based assay, poly(Glu,Tyr 4:1) substrate
Protocol: as §1
A 96-well microtitre plate (Immulon 2HB; ThermoLifeScience, Finland) was coated overnight with 0.25 mg/ml poly(Glu,Tyr 4:1), rinsed twice with 250 µl of washing buffer (10 mM phosphate-buffered saline [pH 7.4] and 0.05% Tween 20) and dried for 2 hours at room temperature. […] Reactions were initiated upon introduction of the enzyme and terminated with the addition of one reaction volume (50 μl) of 100 mM EDTA per 5 M urea mix. […] The final reaction product was quantified by spectrophotometry at 450 nm.

Chain of PDGFRβ (P09619 554-1106): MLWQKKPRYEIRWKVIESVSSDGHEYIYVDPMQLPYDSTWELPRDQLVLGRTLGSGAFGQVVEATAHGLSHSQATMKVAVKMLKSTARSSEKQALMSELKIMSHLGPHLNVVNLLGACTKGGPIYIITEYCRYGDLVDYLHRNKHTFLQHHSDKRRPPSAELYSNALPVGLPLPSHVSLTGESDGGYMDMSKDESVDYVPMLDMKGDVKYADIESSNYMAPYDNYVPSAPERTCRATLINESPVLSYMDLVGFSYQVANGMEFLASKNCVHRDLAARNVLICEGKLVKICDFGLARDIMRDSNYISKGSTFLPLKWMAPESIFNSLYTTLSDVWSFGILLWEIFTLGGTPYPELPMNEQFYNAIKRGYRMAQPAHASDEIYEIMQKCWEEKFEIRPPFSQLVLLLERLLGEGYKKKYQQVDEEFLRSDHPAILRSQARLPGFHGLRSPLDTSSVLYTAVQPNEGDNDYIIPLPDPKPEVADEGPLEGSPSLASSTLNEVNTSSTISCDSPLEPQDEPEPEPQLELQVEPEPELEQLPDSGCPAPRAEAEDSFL
T5 sequence (P52333 whole entry, species assumed): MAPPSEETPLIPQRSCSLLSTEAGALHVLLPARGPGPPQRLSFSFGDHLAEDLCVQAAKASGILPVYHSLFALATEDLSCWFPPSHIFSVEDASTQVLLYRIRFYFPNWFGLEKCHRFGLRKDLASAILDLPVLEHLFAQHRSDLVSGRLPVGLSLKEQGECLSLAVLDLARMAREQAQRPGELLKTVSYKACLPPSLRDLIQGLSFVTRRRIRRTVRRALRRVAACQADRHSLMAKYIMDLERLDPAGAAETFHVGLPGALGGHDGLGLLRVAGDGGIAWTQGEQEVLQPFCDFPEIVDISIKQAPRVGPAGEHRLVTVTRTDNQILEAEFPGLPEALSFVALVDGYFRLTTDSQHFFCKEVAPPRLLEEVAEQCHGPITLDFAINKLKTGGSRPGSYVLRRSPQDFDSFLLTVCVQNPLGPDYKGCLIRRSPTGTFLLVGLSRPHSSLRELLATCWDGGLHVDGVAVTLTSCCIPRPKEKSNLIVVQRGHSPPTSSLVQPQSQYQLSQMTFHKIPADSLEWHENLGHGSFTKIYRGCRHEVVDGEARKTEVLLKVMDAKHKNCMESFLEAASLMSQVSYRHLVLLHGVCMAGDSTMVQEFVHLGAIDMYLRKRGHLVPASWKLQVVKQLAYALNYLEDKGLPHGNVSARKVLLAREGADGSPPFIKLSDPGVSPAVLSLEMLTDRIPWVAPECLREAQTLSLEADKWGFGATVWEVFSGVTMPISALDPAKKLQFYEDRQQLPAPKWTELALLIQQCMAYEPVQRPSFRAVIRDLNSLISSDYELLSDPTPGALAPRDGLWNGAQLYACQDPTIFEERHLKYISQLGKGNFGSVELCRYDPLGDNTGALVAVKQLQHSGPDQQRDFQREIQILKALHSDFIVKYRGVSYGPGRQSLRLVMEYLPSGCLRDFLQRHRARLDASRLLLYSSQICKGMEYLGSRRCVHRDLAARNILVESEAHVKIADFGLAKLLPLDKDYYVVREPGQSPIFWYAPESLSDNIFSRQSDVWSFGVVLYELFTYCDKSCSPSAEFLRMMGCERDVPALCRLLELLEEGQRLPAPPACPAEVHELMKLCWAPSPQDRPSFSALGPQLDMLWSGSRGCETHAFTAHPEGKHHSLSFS
Chain of Fibroblast growth factor receptor 3 (P22607 23-806): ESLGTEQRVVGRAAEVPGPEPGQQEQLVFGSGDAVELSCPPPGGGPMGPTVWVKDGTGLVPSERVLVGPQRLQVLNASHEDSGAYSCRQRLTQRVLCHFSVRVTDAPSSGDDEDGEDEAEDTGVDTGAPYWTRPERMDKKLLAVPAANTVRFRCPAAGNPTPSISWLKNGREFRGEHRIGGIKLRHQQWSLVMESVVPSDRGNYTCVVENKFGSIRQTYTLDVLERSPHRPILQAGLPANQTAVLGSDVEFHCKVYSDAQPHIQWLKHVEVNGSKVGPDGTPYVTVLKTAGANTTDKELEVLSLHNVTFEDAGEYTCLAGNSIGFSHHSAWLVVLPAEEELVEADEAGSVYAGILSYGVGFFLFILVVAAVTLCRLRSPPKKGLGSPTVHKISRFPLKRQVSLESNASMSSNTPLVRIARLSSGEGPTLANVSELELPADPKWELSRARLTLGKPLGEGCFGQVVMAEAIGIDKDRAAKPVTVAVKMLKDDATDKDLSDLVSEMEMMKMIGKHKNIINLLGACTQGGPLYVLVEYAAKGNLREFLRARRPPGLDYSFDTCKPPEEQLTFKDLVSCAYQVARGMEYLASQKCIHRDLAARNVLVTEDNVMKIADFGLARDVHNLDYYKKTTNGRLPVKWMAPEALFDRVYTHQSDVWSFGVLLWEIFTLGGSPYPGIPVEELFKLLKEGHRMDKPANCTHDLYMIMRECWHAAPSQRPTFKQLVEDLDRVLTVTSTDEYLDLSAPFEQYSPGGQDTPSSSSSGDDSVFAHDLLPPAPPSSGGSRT
Chain of Jak2 (O60674 whole entry, the tested form may be a part): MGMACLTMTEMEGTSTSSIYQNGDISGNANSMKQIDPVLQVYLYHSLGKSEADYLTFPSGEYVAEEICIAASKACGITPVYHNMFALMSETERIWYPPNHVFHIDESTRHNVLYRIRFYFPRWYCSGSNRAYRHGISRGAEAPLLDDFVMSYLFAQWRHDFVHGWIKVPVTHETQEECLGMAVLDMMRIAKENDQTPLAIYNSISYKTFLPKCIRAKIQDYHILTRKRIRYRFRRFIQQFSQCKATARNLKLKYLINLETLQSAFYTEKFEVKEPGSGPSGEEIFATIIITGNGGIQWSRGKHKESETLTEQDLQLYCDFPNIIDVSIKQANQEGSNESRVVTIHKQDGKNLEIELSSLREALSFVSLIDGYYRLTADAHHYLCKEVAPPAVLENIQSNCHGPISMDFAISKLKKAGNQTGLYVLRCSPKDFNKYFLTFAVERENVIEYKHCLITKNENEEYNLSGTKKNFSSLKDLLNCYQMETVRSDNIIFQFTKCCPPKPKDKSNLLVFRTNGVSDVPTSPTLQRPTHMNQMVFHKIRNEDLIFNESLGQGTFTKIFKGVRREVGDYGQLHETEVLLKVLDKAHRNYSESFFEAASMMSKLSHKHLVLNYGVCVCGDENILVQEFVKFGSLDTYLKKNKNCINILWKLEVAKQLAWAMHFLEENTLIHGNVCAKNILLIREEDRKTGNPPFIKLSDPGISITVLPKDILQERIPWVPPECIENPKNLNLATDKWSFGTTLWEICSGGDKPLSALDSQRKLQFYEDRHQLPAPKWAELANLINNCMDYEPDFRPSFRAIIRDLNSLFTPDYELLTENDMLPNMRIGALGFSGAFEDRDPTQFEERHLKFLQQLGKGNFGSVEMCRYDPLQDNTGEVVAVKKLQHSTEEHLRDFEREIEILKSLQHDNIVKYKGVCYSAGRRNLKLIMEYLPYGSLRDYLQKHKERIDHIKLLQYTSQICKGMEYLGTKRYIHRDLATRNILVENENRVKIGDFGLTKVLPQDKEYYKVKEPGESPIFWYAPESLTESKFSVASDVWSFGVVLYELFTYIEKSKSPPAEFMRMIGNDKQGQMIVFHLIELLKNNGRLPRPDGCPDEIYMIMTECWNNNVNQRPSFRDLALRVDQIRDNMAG
T1 sequence (P07948 2-491 isoform P07948-2 limits assumed): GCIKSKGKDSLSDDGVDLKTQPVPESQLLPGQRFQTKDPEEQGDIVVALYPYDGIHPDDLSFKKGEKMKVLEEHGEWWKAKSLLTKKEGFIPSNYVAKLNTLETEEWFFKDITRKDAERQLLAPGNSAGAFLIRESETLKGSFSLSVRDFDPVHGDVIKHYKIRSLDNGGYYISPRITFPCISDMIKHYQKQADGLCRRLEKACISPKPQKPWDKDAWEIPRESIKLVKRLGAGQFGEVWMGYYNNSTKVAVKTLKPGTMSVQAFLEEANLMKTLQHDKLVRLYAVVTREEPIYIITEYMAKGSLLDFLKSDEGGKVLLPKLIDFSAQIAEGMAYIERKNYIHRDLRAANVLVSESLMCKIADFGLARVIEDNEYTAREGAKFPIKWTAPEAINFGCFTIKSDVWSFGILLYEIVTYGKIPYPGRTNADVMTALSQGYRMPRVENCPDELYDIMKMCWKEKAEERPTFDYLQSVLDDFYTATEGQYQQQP
T2 sequence (P07949 713-1072 isoform P07949-2): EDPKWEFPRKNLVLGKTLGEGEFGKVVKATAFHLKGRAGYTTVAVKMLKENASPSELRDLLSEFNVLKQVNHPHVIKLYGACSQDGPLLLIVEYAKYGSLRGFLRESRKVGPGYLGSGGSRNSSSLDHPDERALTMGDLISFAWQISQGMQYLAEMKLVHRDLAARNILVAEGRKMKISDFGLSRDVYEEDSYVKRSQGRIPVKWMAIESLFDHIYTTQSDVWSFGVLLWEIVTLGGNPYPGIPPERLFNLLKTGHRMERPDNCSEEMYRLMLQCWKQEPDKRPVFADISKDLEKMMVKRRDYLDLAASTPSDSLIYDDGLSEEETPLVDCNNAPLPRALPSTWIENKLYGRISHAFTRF

Q: Which IC50 (Lyn B) does the source give for `CS(=O)(=O)O.CS(=O)(=O)O.Cc1ccc(NC(=O)c2ccc(CN3CCN(C)CC3)cc2)cc1Nc1nc(-c2cccnc2)cs1` [masitinib, 4-(4-methylpiperazin-1-ylmethyl)-N-[4-methyl-3-(4-pyridin-3ylthiazol-2-ylamino)phenyl]benzamide-mesylate methane sulfonic acid salt] here?
A: 0.51 ± 0.13 µM

Q: And the chromosome aberrations [1]?
A: does not cause chromosome aberrations

Q: What about the IC50 (c-Ret) of the same molecule?
A: > 10 µM

Q: What about the IC50 (Jak2) of the same molecule?
A: > 10 µM

Q: What about the IC50 (PDGFRβ) of the same molecule?
A: 0.8 ± 0.12 µM

Q: What about the IC50 (primary BMMCs) of the same molecule?
A: > 10 µM

Q: And the IC50 (Syk)?
A: > 10 µM

Q: And the IC50 (Jak1)?
A: 8 ± 1.4 µM

Q: What about the inhibition at 0.1 µM ([2]; 0.1 µM) of the same molecule?
A: 7%

Q: And the inhibition at 1 µM ([2]; 1.0 µM)?
A: 18%

Q: And the inhibition at 10 µM ([2]; 10 µM)?
A: 35%

Q: And the IC50 (Jak3)?
A: 10 ± 0.5 µM

Q: What about the IC50 [3] of the same molecule?
A: > 10 µM
